For 28 molecules, IC50 results are on record in patent publication US11446287B2, “Compounds and methods for EP300 or CBP modulation and indications therefor” (Opna Immuno-Oncology SA, priority 2019, dated 2022).

The target of this assay is T1, Recombinant human CBP containing the bromodomain (CBP-BD (1043-1159)) (Homo sapiens, UniProt Q92793).
T1 construct: Recombinant human CBP bromodomain (CBP-BD (1043-1159)); made in house; host or cells: E. coli BL21-CodonPlus (DE3), modified pET vector
T1 sequence (Q92793 1081-1197): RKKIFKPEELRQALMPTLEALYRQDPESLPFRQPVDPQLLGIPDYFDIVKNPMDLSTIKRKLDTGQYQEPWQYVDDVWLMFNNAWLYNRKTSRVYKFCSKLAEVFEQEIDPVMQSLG
The assay is described as follows: CBP Alphascreen binding assay. The note with it: read-out: CREBBP (CBP) IC50. A digest of the protocol:
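Buffer: 50 mM HEPES pH 7.5, 50 mM NaCl, 0.01% BSA, 0.01% Triton X-100, 2 mM DTT. The signal was normalised to plate controls and fitted with a four-parameter curve to give IC50.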
For the molecule `Cc1noc(C)c1-c1cnc2c(c1)c(-c1ccc(C(N)=O)cc1)cn2C(c1ccccn1)C1CCCC1` (stereo not shown) [P-0020, 4-(1-(cyclopentyl(pyridin-2-yl)methyl)-5-(3,5-dimethylisoxazol-4-yl)-1H-pyrrolo[2,3-b]pyridin-3-yl)benzamide], the IC50 is 1 to 8 µM.

Take `CNC(=O)c1ccc(-c2cn(C(c3ccccn3)C3CCCC3)c3ncc(-c4c(C)noc4C)cc23)cc1` (stereo not shown) [P-0021, 4-(1-(cyclopentyl(pyridin-2-yl)methyl)-5-(3,5-dimethylisoxazol-4-yl)-1H-pyrrolo[2,3-b]pyridin-3-yl)-N-methylbenzamide]: the IC50 lay within 1 to 8 µM.

Consider `Cc1noc(C)c1-c1cnc2c(c1)c(-c1ccc(C#N)cc1)cn2C(c1ccccn1)C1CCCC1` (stereo not shown) [P-0022, 4-(1-(cyclopentyl(pyridin-2-yl)methyl)-5-(3,5-dimethylisoxazol-4-yl)-1H-pyrrolo[2,3-b]pyridin-3-yl)benzonitrile], for which the IC50 lay in the range of 8 to 1000 µM.

With `Cc1noc(C)c1-c1cnc2c(c1)c(-c1ccc3c(c1)CNC3=O)cn2C(c1ccccn1)C1CCCC1` (stereo not shown) [P-0023, 5-(1-(cyclopentyl(pyridin-2-yl)methyl)-5-(3,5-dimethylisoxazol-4-yl)-1H-pyrrolo[2,3-b]pyridin-3-yl)isoindolin-1-one], the IC50 lay within 1 to 8 µM.

Consider `Cc1noc(C)c1-c1cnc2c(c1)c(-c1ccc(-c3nn[nH]n3)cc1)cn2C(c1ccccn1)C1CCCC1` (stereo not shown) [P-0024, 4-(3-(4-(2H-tetrazol-5-yl)phenyl)-1-(cyclopentyl(pyridin-2-yl)methyl)-1H-pyrrolo[2,3-b]pyridin-5-yl)-3,5-dimethylisoxazole], for which the IC50 is 1 to 8 µM.

For `Cc1noc(C)c1-c1cnc2c(c1)c(-c1ccc(C(=O)O)c(F)c1)cn2C(c1ccccn1)C1CCCC1` (stereo not shown) [P-0025, 4-(1-(cyclopentyl(pyridin-2-yl)methyl)-5-(3,5-dimethylisoxazol-4-yl)-1H-pyrrolo[2,3-b]pyridin-3-yl)-2-fluorobenzoic acid], the IC50 fell in the range of 0.0001 to 1 µM.

As to `Cc1noc(C)c1-c1cnc2c(c1)c(-c1ccc(C(=O)O)nc1)cn2C(c1ccccn1)C1CCCC1` (stereo not shown) [P-0026, 5-(1-(cyclopentyl(pyridin-2-yl)methyl)-5-(3,5-dimethylisoxazol-4-yl)-1H-pyrrolo[2,3-b]pyridin-3-yl)picolinic acid], the IC50 lay in the range of 0.0001 to 1 µM.

As to `Cc1cc(-c2c(C(F)(F)F)n([C@@H](C)c3ccccn3)c3cc(-c4c(C)noc4C)cnc23)ccc1C(=O)O` [P-0243, (S)-4-(6-(3,5-dimethylisoxazol-4-yl)-1-(1-(pyridin-2-yl)ethyl)-2-(trifluoromethyl)-1H-pyrrolo[3,2-b]pyridin-3-yl)-2-methylbenzoic acid], the IC50 lay in the range of 1 to 8 µM.

With `COc1cc(-c2c(C(F)(F)F)n([C@@H](C)c3ccccn3)c3cc(-c4c(C)noc4C)cnc23)ccc1C(=O)O` [P-0244, (S)-4-(6-(3,5-dimethylisoxazol-4-yl)-1-(1-(pyridin-2-yl)ethyl)-2-(trifluoromethyl)-1H-pyrrolo[3,2-b]pyridin-3-yl)-2-methoxybenzoic acid], the IC50 lay within 1 to 8 µM.

Consider `Cc1noc(C)c1-c1cnc2c(-c3cccc(C(=O)O)c3F)c(C(F)(F)F)n([C@@H](C)c3ccccn3)c2c1` [P-0245, (S)-3-(6-(3,5-dimethylisoxazol-4-yl)-1-(1-(pyridin-2-yl)ethyl)-2-(trifluoromethyl)-1H-pyrrolo[3,2-b]pyridin-3-yl)-2-fluorobenzoic acid], for which the IC50 lay in the range of 0.0001 to 1 µM.

`Cc1noc(C)c1-c1cnc2c(-c3cccc(C(=O)O)c3C)c(C(F)(F)F)n([C@@H](C)c3ccccn3)c2c1` [P-0246, (S)-3-(6-(3,5-dimethylisoxazol-4-yl)-1-(1-(pyridin-2-yl)ethyl)-2-(trifluoromethyl)-1H-pyrrolo[3,2-b]pyridin-3-yl)-2-methylbenzoic acid]: the IC50 was in the range of 1 to 8 µM.

For the molecule `Cc1noc(C)c1-c1cnc2c(-c3cccc(C(=O)O)c3Cl)c(C(F)(F)F)n([C@@H](C)c3ccccn3)c2c1` [P-0247, (S)-2-chloro-3-(6-(3,5-dimethylisoxazol-4-yl)-1-(1-(pyridin-2-yl)ethyl)-2-(trifluoromethyl)-1H-pyrrolo[3,2-b]pyridin-3-yl)benzoic acid], the IC50 lay in the range of 0.0001 to 1 µM.

`CCOC(=O)c1cc(-c2cn(-c3ccc(F)cc3F)c3ncc(-c4c(C)noc4C)cc23)c(OCC)cc1O` [P-0248, ethyl 5-(1-(2,4-difluorophenyl)-5-(3,5-dimethylisoxazol-4-yl)-1H-pyrrolo[2,3-b]pyridin-3-yl)-4-ethoxy-2-hydroxybenzoate]: the IC50 was in the range of 8 to 1000 µM.

In the case of `CCOc1cc(O)c(C(=O)O)cc1-c1cn(-c2ccc(F)cc2F)c2ncc(-c3c(C)noc3C)cc12` [P-0249, 5-(1-(2,4-difluorophenyl)-5-(3,5-dimethylisoxazol-4-yl)-1H-pyrrolo[2,3-b]pyridin-3-yl)-4-ethoxy-2-hydroxybenzoic acid], the IC50 was in the range of 0.0001 to 1 µM.

For the molecule `CCOc1cc(OC)c(C(=O)O)cc1-c1cn(-c2ccc(F)cc2F)c2ncc(-c3c(C)noc3C)cc12` [P-0250, 5-(1-(2,4-difluorophenyl)-5-(3,5-dimethylisoxazol-4-yl)-1H-pyrrolo[2,3-b]pyridin-3-yl)-4-ethoxy-2-methoxybenzoic acid], the IC50 was in the range of 0.0001 to 1 µM.

In the case of `Cc1noc(C)c1-c1cnc2c(c1)c(-c1ccc(C(=O)O)cc1OC(F)(F)F)cn2-c1cnccc1F` [P-0251, 4-(5-(3,5-dimethylisoxazol-4-yl)-1-(4-fluoropyridin-3-yl)-1H-pyrrolo[2,3-b]pyridin-3-yl)-3-(trifluoromethoxy)benzoic acid], the 50% inhibitory concentration (IC50) was 0.0001 to 1 µM.

Turning to `Cc1noc(C)c1-c1cnc2c(c1)c(-c1ccc(C(=O)O)cc1OC(F)(F)F)cn2-c1cnccc1O` [P-0252, 4-(5-(3,5-dimethylisoxazol-4-yl)-1-(4-hydroxypyridin-3-yl)-1H-pyrrolo[2,3-b]pyridin-3-yl)-3-(trifluoromethoxy)benzoic acid], the IC50 lay in the range of 0.0001 to 1 µM.

As to `Cc1noc(C)c1-c1cnc2c(c1)c(-c1ccc(C(=O)O)cc1OC(F)(F)F)cn2-c1ccncc1Cl` [P-0253, 4-(1-(3-chloropyridin-4-yl)-5-(3,5-dimethylisoxazol-4-yl)-1H-pyrrolo[2,3-b]pyridin-3-yl)-3-(trifluoromethoxy)benzoic acid], the IC50 lay in the range of 0.0001 to 1 µM.

On to `Cc1noc(C)c1-c1cnc2c(c1)c(-c1ccc(C(=O)O)cc1OC(F)(F)F)cn2-c1c(F)cccc1C#N` [P-0254, 4-(1-(2-cyano-6-fluorophenyl)-5-(3,5-dimethylisoxazol-4-yl)-1H-pyrrolo[2,3-b]pyridin-3-yl)-3-(trifluoromethoxy)benzoic acid], for which the IC50 lay within 0.0001 to 1 µM.

Turning to `COc1cc(C(=O)O)cc(C)c1-c1cn(-c2ccccc2)c2ncc(-c3c(C)noc3C)cc12` [P-0255, 4-(5-(3,5-dimethylisoxazol-4-yl)-1-phenyl-1H-pyrrolo[2,3-b]pyridin-3-yl)-3-methoxy-5-methylbenzoic acid], the IC50 was 0.0001 to 1 µM.

As for `Cc1noc(C)c1-c1cnc2c(-c3ccc(C(=O)O)cc3C#N)c(C(F)(F)F)n([C@@H](C)c3ccccn3)c2c1` [P-0256, (S)-3-cyano-4-(6-(3,5-dimethylisoxazol-4-yl)-1-(1-(pyridin-2-yl)ethyl)-2-(trifluoromethyl)-1H-pyrrolo[3,2-b]pyridin-3-yl)benzoic acid], the IC50 lay within 0.0001 to 1 µM.

On to `Cc1noc(C)c1-c1cnc2c(-c3cc(C(=O)O)ccc3Cl)c(C(F)(F)F)n([C@@H](C)c3ccccn3)c2c1` [P-0257, (S)-4-chloro-3-(6-(3,5-dimethylisoxazol-4-yl)-1-(1-(pyridin-2-yl)ethyl)-2-(trifluoromethyl)-1H-pyrrolo[3,2-b]pyridin-3-yl)benzoic acid], for which the IC50 was 0.0001 to 1 µM.

On to `CCOc1cc(C(=O)O)cc(OCC)c1-n1cc(-c2cnn(CS(C)(=O)=O)c2)c2ncc(-c3c(C)noc3C)cc21` [P-0258, 4-(6-(3,5-dimethylisoxazol-4-yl)-3-(1-((methylsulfonyl)methyl)-1H-pyrazol-4-yl)-1H-pyrrolo[3,2-b]pyridin-1-yl)-3,5-diethoxybenzoic acid], for which the IC50 was in the range of 0.0001 to 1 µM.

For `CCOc1cc(C(=O)O)cc(OCC)c1-n1cc(-c2cn(C(C)C)nc2C)c2ncc(-c3c(C)noc3C)cc21` [P-0259, 4-(6-(3,5-dimethylisoxazol-4-yl)-3-(1-isopropyl-3-methyl-1H-pyrazol-4-yl)-1H-pyrrolo[3,2-b]pyridin-1-yl)-3,5-diethoxybenzoic acid], the IC50 was in the range of 0.0001 to 1 µM.

Take `CCOc1cc(C(=O)O)cc(OCC)c1-n1cc(-c2cnn(CC(C)(C)O)c2)c2ncc(-c3c(C)noc3C)cc21` [P-0260, 4-(6-(3,5-dimethylisoxazol-4-yl)-3-(1-(2-hydroxy-2-methylpropyl)-1H-pyrazol-4-yl)-1H-pyrrolo[3,2-b]pyridin-1-yl)-3,5-diethoxybenzoic acid]: the IC50 is 0.0001 to 1 µM.

With `CCOc1cc(C(=O)O)cc(OCC)c1-n1cc(-c2cnn(C(F)F)c2)c2ncc(-c3c(C)noc3C)cc21` [P-0261, 4-(3-(1-(difluoromethyl)-1H-pyrazol-4-yl)-6-(3,5-dimethylisoxazol-4-yl)-1H-pyrrolo[3,2-b]pyridin-1-yl)-3,5-diethoxybenzoic acid], the IC50 is 0.0001 to 1 µM.

Turning to `CCOc1cc(C(=O)O)cc(OCC)c1-n1cc(-c2cnn(CCN(C)C)c2)c2ncc(-c3c(C)noc3C)cc21` [P-0262, 4-(3-(1-(2-(dimethylamino)ethyl)-1H-pyrazol-4-yl)-6-(3,5-dimethylisoxazol-4-yl)-1H-pyrrolo[3,2-b]pyridin-1-yl)-3,5-diethoxybenzoic acid], the IC50 was in the range of 0.0001 to 1 µM.

Take `CCOc1cc(C(=O)O)cc(OCC)c1-n1cc(-c2cn(C)nc2C)c2ncc(-c3c(C)noc3C)cc21` [P-0263, 4-(3-(1,3-dimethyl-1H-pyrazol-4-yl)-6-(3,5-dimethylisoxazol-4-yl)-1H-pyrrolo[3,2-b]pyridin-1-yl)-3,5-diethoxybenzoic acid]: the IC50 was in the range of 0.0001 to 1 µM.
